Results on 7 compounds are retold here after patent publication US11413278B2, “Compounds and methods for promoting stress resistance” (priority 2015, dated 2022).

Entries after “also recorded” stand apart in the source; their conditions may differ. Like-named read-outs stand apart in the source and are kept apart here.

Series [1] concerns HTB-178 lung tumor cells (EGFR+, PIK3CA+, RB1−, TP53−). The series is described as follows: Killing effects on HTB-178 tumor cells. The series is classed as cell-based, human.
Another series relates to NRF2. Kind of series: qPCR analysis of NRF2-regulated genes. The series is classed as cell-based, human. The conditions noted are these: for fold induction at 10 µM: Homo sapiens; for Potential NRF2 Activation (>=2 target genes induced, by >=1.5-fold): Assay 13(p). The gist of the method: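 WI-38 cells treated with compound at 10 μM for 24 hrs, then processed by Cells-to-Ct for RNA isolation, RT and qPCR of NRF2-regulated genes (HMOX1, NQO1, GCLC, GSTM1). Expression normalized to B2M, PPIA and GAPDH; siRNA knockdown of FOXO3 or NRF2 (10 nM) preceded treatment in some runs.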

A further series can be described thus: in vitro. The series is classed as cell-based, human. The following applies: human.
For another series, the system named is human protein targets. The following applies: PubChem database queries; cited from earlier work.
[2] abbreviates: 24 h, Assay 12(o), at 10 uM, qPCR, read-out: Induction of NRF2-regulated genes: GCLC normalized fold-change.
The mark [3] stands for this setting: 24 h, Assay 12(o), at 10 uM, qPCR, read-out: Induction of NRF2-regulated genes: GSTM1 normalized fold-change.
[4] abbreviates: rounded fold change, WI-38 cells, 10 μM, 24 hrs (RP29 for Gr-4D), read-out: Summary of effects on NRF2-regulated genes: GSTM1.
Setting [5] is: rounded fold change, WI-38 cells, 10 μM, 24 hrs (RP29 for Gr-4D), read-out: Summary of effects on NRF2-regulated genes: NQO1.
Setting [6] is: rounded fold change, WI-38 cells, 10 μM, 24 hrs, read-out: Summary of effects on NRF2-regulated genes: GCLC.
Setting [7] is: 10 μM, 24 hrs, WI-38, read-out: Expression of at least two NRF2 target genes.
[8] abbreviates: 10 μM, 24 hrs, WI-38 cells, qPCR, normalized to B2M, n = 4, read-out: GCLC expression, normalized fold change (NRF2-regulated gene).
Where [9] appears, read: 10 μM, 24 hrs, WI-38 cells, qPCR, normalized to B2M, n = 4, read-out: GSTM1 expression, normalized fold change (NRF2-regulated gene).
Where [10] appears, read: 10 μM, 24 hrs, WI-38 cells, qPCR, normalized to B2M, n = 4, read-out: NQO1 expression, normalized fold change (NRF2-regulated gene).
Where [11] appears, read: WI-38 cells, 10 μM, 24 hrs, n=4, qPCR normalized by B2M, read-out: GCLC Normalized fold change.
Where [12] appears, read: WI-38 cells, 10 μM, 24 hrs, n=4, qPCR normalized by B2M, read-out: GSTM1 Normalized fold change.
The mark [13] stands for this setting: WI-38 cells, 10 μM, 24 hrs, n=4, qPCR normalized by B2M, read-out: HMOX1 Normalized fold change.
Where [14] appears, read: WI-38 cells, 10 μM, 24 hrs, n=4, qPCR normalized by B2M, read-out: NQO1 Normalized fold change.
[15] abbreviates: 24 h, Assay 12(o), at 10 uM, qPCR, read-out: Induction of NRF2-regulated genes: HMOX1 normalized fold-change.
Where [16] appears, read: 24 h, Assay 12(o), at 10 uM, qPCR, read-out: Induction of NRF2-regulated genes: NQO1 normalized fold-change.
[17] abbreviates: rounded fold change, WI-38 cells, 10 μM, 24 hrs (RP11 for Gr-1D, RP29 for Gr-4D), read-out: Summary of effects on NRF2-regulated genes: HMOX1.
[18] abbreviates: 10 μM, 24 hrs, WI-38 cells, qPCR, normalized to B2M, n = 4, read-out: HMOX1 expression, normalized fold change (NRF2-regulated gene).

Turning to `NS(=O)(=O)c1ccc(NC(=O)c2ccc([N+](=O)[O-])o2)cc1` [Gr-1A], the “Potential killing effects on HTB-178 tumor cells, 1st” value (“Potential killing effects … 1st” below) in series [1] (Assay 1(y), at 10 uM) is recorded as “YES;”. Also, the “F = Potential NRF2 Activation” value in the series with NRF2 (2-point score) is on record as 2; in the series with NRF2 (summary score), 0. The fold induction at 10 µM in the series with NRF2 (setting [2]) is 1.48; in the series with NRF2 (setting [3]) it was 1.45; in the series with NRF2 (setting [4]), 1.45; in the series with NRF2 (setting [5]) it was 1.79; in the series with NRF2 (setting [6]), 1.61; in the series with NRF2 (setting [7]), more than 1.5. For the same compound, the fold induction at 10 µM in the series on NRF2 (setting [8]) stood at 1.61; with NRF2 (setting [9]), 1.45; with NRF2 (setting [10]) it was 1.79; in the series on NRF2 (setting [11]), 1.61; with NRF2 (setting [12]) it was 2.53; with NRF2 (setting [13]), 0.973. Also, the fold induction at 10 µM with NRF2 (setting [14]) was 1.79. Further, the cytotoxicity at 24 h, 10 uM in the series “in vitro” came to 30%.
Take `Cc1ccc(S(=O)(=O)Nc2cccc3cccnc23)cc1` [Gr-3B]: the “Potential killing effects … 1st” value in series [1] (Assay 1(y), at 10 uM) is recorded as “YES;”. In addition, the “Potential targets: human protein targets (confirmed)” value (“Potential targets” for short) with human protein targets is “ADRB2, AGTR1, APLNR, ARNT, BARD1, BRCA1, CCR6, CFTR, CHRM4,; also recorded: CXCR6, DRD3, EPAS1, GOPC, HIF1A, HTT, IL1B, MAP1LC3A, MDM2,; also recorded: MDM4, MITF, NFE2L2, NOD1, NOD2, NOD2, RR2E3, OPRD1, OPRK1,; also recorded: OPRM1, PRNP, RIPK2, S1PR1, S1PR4, SIX1, SLC12A5, SMAD3, TACC3,; also recorded: TARDBP, TDP1, TLR9, TNF”. Moreover, the “F = Potential NRF2 Activation” value in the series on NRF2 (2-point score) and in the series on NRF2 (summary score) was 0 each time. Also, the fold induction at 10 µM in the series on NRF2 (setting [11]) is 1.1; with NRF2 (setting [12]), 1.1; in the series on NRF2 (setting [13]) it was 1.04; in the series on NRF2 (setting [14]), 1.07.
Turning to `O=C(/C(=C/c1ccc(Cl)cc1)c1nc2ccccc2[nH]1)c1ccccc1` [Gr-4D], the “Potential killing effects … 1st” value in series [1] (Assay 1(y), at 10 uM) is on record as “YES;”. Also, the “Potential targets” value in the series on human protein targets is given as “ABHD5, ATXN2, BARD1, BRCA, CFTR, CHRM1, CHRM4, CYP2C9, CYP3A4,; also recorded: DRD3, EPAS1, GMNN, GPR183, HIF1A, HNF4A, HTT, IDH1, IL1B, MAPT,; also recorded: MDM2, MDM4, MITF, NFKB1, NOD1, NOD2, PLIN5, RELA, SMAD3, TDP1,; also recorded: TNF, TNFRSF10B, TUBB”. The “Induction of at least two NRF2-regulated genes (HMOX1, NQO1, GCLC, GSTM1)” value with NRF2 (10 μM, 24 hrs, WI-38) is “could induce both FOXO3- and NRF2-regulated genes”. Besides, the “F = Potential NRF2 Activation” value in the series on NRF2 (2-point score) and with NRF2 (summary score) was 2 each time. For the same compound, the “Potential NRF2 Activation (>=2 target genes induced, by >=1.5-fold)” value with NRF2 is “YES”. Further, the fold induction at 10 µM stood at 1.52 in the series on NRF2 (setting [3]); 4.55 in the series with NRF2 (setting [15]); 2.56 in the series on NRF2 (setting [16]); 4.55 with NRF2 (setting [17]); 1.52 in the series with NRF2 (setting [4]); 2.56 in the series with NRF2 (setting [5]). Further, the fold induction at 10 µM is more than 1.5 in the series on NRF2 (setting [7]); 1.52 with NRF2 (setting [9]); 4.55 in the series on NRF2 (setting [18]); 2.56 with NRF2 (setting [10]); 0.863 in the series on NRF2 (setting [11]); 1.52 in the series with NRF2 (setting [12]). For the same compound, the fold induction at 10 µM in the series on NRF2 (setting [13]) amounted to 4.55; with NRF2 (setting [14]) it was 2.56. The “Summary of effects on NRF2-regulated genes: HMOX1, second run” value in the series on NRF2 (run RP42 (Gr-1D) / RP52 (Gr-4D), WI-38 cells, 10 μM) was 2.40,. Besides, in the series with NRF2 (run RP52 (Gr-4D), WI-38 cells, 10 μM), the “Summary of effects on NRF2-regulated genes: NQO1, second run” value is recorded as 1.49,.
As to `O=C(NCc1cccnc1)/C(=C\c1cccc(Oc2ccccc2)c1)S(=O)(=O)c1ccccc1` [Gr-7A], in series [1] (10 uM, YES/NO), the “Assay 21: Potential killing effects on HTB-178 tumor cells” value is “YES”. Also, the “Toxicity / viability of HTB-178 lung tumor cells” value in series [1] (10 μM, preliminary data) was “exerted more pronounced toxicity; also recorded: significantly reduce the viability”. For the same compound, in series [1] (Assay 1(y), at 10 uM), the “Potential killing effects … 1st” value is “YES;”. Further, the “Potential killing effects on HTB-178 tumor cells, 2nd” value in series [1] (Assay 1(y), at 10 uM, 2nd) is listed as “YES”. Further, the “F = Potential NRF2 Activation” value with NRF2 (2-point score) and with NRF2 (summary score) was 0 throughout. Besides, the fold induction at 10 µM with NRF2 (setting [2]) amounted to 0.6; in the series with NRF2 (setting [15]) it was 15.2; with NRF2 (setting [16]) it was 0.78; in the series on NRF2 (setting [17]) it was 15.2; with NRF2 (setting [5]) it was 0.78; with NRF2 (setting [6]) it was 0.6. Moreover, the fold induction at 10 µM in the series with NRF2 (setting [8]) was 0.6; with NRF2 (setting [18]) it was 15.2; in the series on NRF2 (setting [10]) it was 0.78; in the series with NRF2 (setting [11]), 0.602; with NRF2 (setting [12]), 1.09; with NRF2 (setting [13]) it was 15.2. The fold induction at 10 µM in the series on NRF2 (setting [14]) was 0.779. In addition, in the series “in vitro”, the cytotoxicity at 24 h, 10 uM amounted to 84%.
`CC1C(=O)C(C)C(c2cc(Cl)ccc2O)NC1c1cc(Cl)ccc1O` (stereo not drawn) [O6]: the “Potential killing effects … 1st” value in series [1] (Assay 1(y), at 10 uM) is on record as “YES;”. In addition, the “Potential targets” value in the series with human protein targets is given as “ADAM10, ADAM17, ATXN2, GLP1R, IDH1, IL1B, KCNE1, KCNQ1, NTSR1”. Also, the “F = Potential NRF2 Activation” value with NRF2 (2-point score) and with NRF2 (summary score) was 2 in each case. Also, in the series with NRF2, the “Potential NRF2 Activation (>=2 target genes induced, by >=1.5-fold)” value is “YES”. In addition, the fold induction at 10 µM with NRF2 (setting [15]) is 3.85; in the series with NRF2 (setting [16]), 1.62; with NRF2 (setting [17]) it was 3.85; in the series on NRF2 (setting [5]), 1.62; in the series with NRF2 (setting [7]), more than 1.5; in the series with NRF2 (setting [18]), 3.85. Also, the fold induction at 10 µM was determined as 1.62 in the series on NRF2 (setting [10]); 1.06 with NRF2 (setting [11]); 0.965 with NRF2 (setting [12]); 3.85 in the series on NRF2 (setting [13]); 1.62 in the series with NRF2 (setting [14]).
For `Cc1cc(C)c(C(=O)/C=C/c2ccccc2F)c(O)n1` [O18], in the series on human protein targets, the “Potential targets” value is “JAK2”. Moreover, the “F = Potential NRF2 Activation” value with NRF2 (2-point score) and in the series with NRF2 (summary score) was 2 in each case. Besides, in the series with NRF2, the “Potential NRF2 Activation (>=2 target genes induced, by >=1.5-fold)” value is reported as “YES”. The fold induction at 10 µM with NRF2 (setting [2]) stood at 2.1; in the series with NRF2 (setting [3]), 1.52; in the series with NRF2 (setting [15]) it was 23.8; with NRF2 (setting [16]) it was 2.94; in the series with NRF2 (setting [17]), 23.8; with NRF2 (setting [4]), 1.52. Further, the fold induction at 10 µM with NRF2 (setting [5]) is 2.94; with NRF2 (setting [6]) it was 2.1; in the series with NRF2 (setting [7]), more than 1.5; in the series on NRF2 (setting [8]), 2.1; in the series with NRF2 (setting [9]) it was 1.52; in the series with NRF2 (setting [18]), 23.8. Also, the fold induction at 10 µM in the series on NRF2 (setting [10]) turned out to be 2.94; in the series with NRF2 (setting [11]) it was 2.1; in the series on NRF2 (setting [12]) it was 1.52; with NRF2 (setting [13]), 23.8; in the series on NRF2 (setting [14]) it was 2.94.
On to `CC(C)(C)c1ccc(OCC(=O)Nc2ccc3c4c(cccc24)C(=O)NC3=O)cc1` [O22], for which the “Potential targets” value in the series on human protein targets was “APOBEC3F, CFTR, NCOA3, OPRD1, OPRM1, PPARG, S1PR4, TDP1”. Besides, the “F = Potential NRF2 Activation” value with NRF2 (2-point score) and in the series on NRF2 (summary score) was 0 each time. Moreover, the fold induction at 10 µM with NRF2 (setting [2]) came to 0.66; in the series on NRF2 (setting [6]), 0.66; in the series with NRF2 (setting [8]), 0.66; in the series on NRF2 (setting [11]) it was 0.659; in the series on NRF2 (setting [12]), 0.877; in the series with NRF2 (setting [13]), 0.765. Moreover, the fold induction at 10 µM with NRF2 (setting [14]) was 0.929.
